test system: T1, PIM-1 or PIM-2; test: PIM-1 / PIM-2 biochemical assay (ADP Hunter assay kit); set-up: species or system human; details: tested in either the PIM-1 or the PIM-2 biochemical assay (as appropriate); ATP 100 μM
T1 construct: fused on or other part: C-terminal histidine tag (PIM-1 enzyme); N-terminal histidine tag (PIM-2 enzyme)
Description: The biochemical assay to measure PIM-1 activity relies on the ADP Hunter assay kit (DiscoveRx Corp., Cat. # 90-0077), that determines the amount of ADP as direct product of the kinase enzyme activity.
The enzyme has been expressed and purified in-house as a recombinant human protein with a C-terminal histidine tag. The protein is active and stable.
(§1) Assay conditions were as indicated by the kit manufacturers with the following adaptations for the kinase activity step: • Kinase assay buffer and assay volume stay as recommended (15 mM HEPES, pH 7.4, 20 mM NaCl, 1 mM EGTA, 0.02% Tween 20, 10 mM MgCl2 and 0.1 mg/ml bovine γ-globulins/75 μl assay volume) • Incubation time and temperature: 60 min at 30° C. • PIM-1 concentration: 50 pg/μl • ATP concentration: 100 μM • PIM-1 substrate peptide: PIMtide (ARKRRRHPSGPPTA) • Peptide concentration: 60 μM • Positive control for kinase activity inhibition: 1-10 μM Staurosporine • DMSO concentration have to stay below 2% during the kinase reaction
Assays were performed in either 96 or 384-well plates. The final outcome of the coupled reactions provided by the kit is the release of the fluorescent product Resorufin and has been measured with a multilabel HTS counter VICTOR V (PerkinElmer) using an excitation filter at 544 nm and an emission filter at 580 nm.
The biochemical assay to measure PIM-2 activity relies on the ADP Hunter assay kit (DiscoveRx Corp., Cat. # 90-0077), that determines the amount of ADP as direct product of the kinase enzyme activity.
The enzyme has been expressed and purified in-house as a recombinant human protein with a N-terminal histidine tag. The protein is active and stable.
as §1, with “mg/ml bovine γ-globulins/20 μl assay” for “mg/ml bovine γ-globulins/75 μl assay”, “and temperature: 30 min at” for “and temperature: 60 min at”, “C. • PIM-2 concentration: 350” for “C. • PIM-1 concentration: 50”, “PIM-2 concentration: 350 pg/μl •” for “PIM-1 concentration: 50 pg/μl •”, “Peptide concentration: 100 μM •” for “Peptide concentration: 60 μM •”

SMILES | IC50 [µM]
Cc1cc(NCc2ccc(Cl)c(Cl)c2)nn2c(C#Cc3ccccc3)cnc12 [Example 71, (3,4-Dichloro-benzyl)-(8-methyl-3-phenylethynyl-imidazo[1,2-b]pyridazin-6-yl)-amine] | 5.19
COc1ccc(CNc2ccc3nc(C)c(C(=O)Nc4ccccc4)n3n2)cc1 [Example 81, 6-(4-Methoxy-benzylamino)-2-methyl-imidazo[1,2-b]pyridazine-3-carboxylic acid phenylamide] | 8.87
O=C(Nc1cnc2ccc(-c3ccccc3)nn12)c1ccccc1 [Example 84, N-(6-Phenyl-imidazo[1,2-b]pyridazin-3-yl)-benzamide] | 5.23
CCS(=O)(=O)Nc1cnc2ccc(-c3ccccc3)nn12 [Example 85, Ethanesulfonic acid (6-phenyl-imidazo[1,2-b]pyridazin-3-yl)-amide] | 17.4
O=S(=O)(Nc1cnc2ccc(-c3ccccc3)nn12)c1ccccc1 [Example 86, N-(6-Phenyl-imidazo[1,2-b]pyridazin-3-yl)-benzenesulfonamide] | 14.5
CCC(=O)Nc1cnc2ccc(NCc3ccc(F)cc3)nn12 [Example 89, N-[6-(4-Fluoro-benzylamino)-imidazo[1,2-b]pyridazin-3-yl]-propionamide] | 19
O=C(Nc1cnc2ccc(Oc3ccccc3)nn12)c1ccccc1 [Example 98, N-(6-Phenoxy-imidazo[1,2-b]pyridazin-3-yl)-benzamide] | 4.65
COc1ccc(C(=O)Nc2cnc3ccc(-n4ccnc4)nn23)cc1 [Example 100, N-(6-Imidazol-1-yl-imidazo[1,2-b]pyridazin-3-yl)-4-methoxy-benzamide] | 19.1
O=C(Nc1cnc2ccc(-n3ccnc3)nn12)c1ccc(O)cc1 [Example 103, 4-Hydroxy-N-(6-imidazol-1-yl-imidazo[1,2-b]pyridazin-3-yl)-benzamide] | 14.4

More lines, in order of falling IC50, values ahead:

IC50 [µM] | SMILES
4.55 | Cc1nc2ccc(NCc3ccc(F)cc3)nn2c1C(=O)Nc1ccccc1 [Example 80, 6-(4-Fluoro-benzylamino)-2-methyl-imidazo[1,2-b]pyridazine-3-carboxylic acid phenylamide]
2.85 | Clc1ccc(CNc2ccc3ncc(C#CCc4ccccc4)n3n2)cc1Cl [Example 73, N-(3,4-dichlorobenzyl)-3-(3-phenylprop-1-ynyl)imidazo[1,2-b]pyridazin-6-amine]
2.25 | O=C(Nc1cnc2ccc(NCc3ccc(F)cc3)nn12)c1cccc(O)c1 [Example 102, N-[6-(4-Fluoro-benzylamino)-imidazo[1,2-b]pyridazin-3-yl]-3-hydroxy-benzamide]
2.22 | Cc1cc2ncc(C#Cc3ccccc3)n2nc1NCc1ccc(Cl)c(Cl)c1 [Example 70, (3,4-Dichloro-benzyl)-(7-methyl-3-phenylethynyl-imidazo[1,2-b]pyridazin-6-yl)-amine]
1.15 | O=C(Nc1cnc2ccc(NCc3ccc(F)cc3)nn12)c1ccccc1 [Example 90, N-[6-(4-Fluoro-benzylamino)-imidazo[1,2-b]pyridazin-3-yl]-benzamide]
0.41 | O=C(Nc1cnc2ccc(NCc3ccc(F)cc3)nn12)c1ccc(O)cc1 [Example 101, N-[6-(4-Fluoro-benzylamino)-imidazo[1,2-b]pyridazin-3-yl]-4-hydroxy-benzamide]
0.31 | COc1ccc(C(=O)Nc2cnc3ccc(NCc4ccc(F)cc4)nn23)cc1 [Example 91, N-[6-(4-Fluoro-benzylamino)-imidazo[1,2-b]pyridazin-3-yl]-4-methoxy-benzamide]

Reference: patent US20110046127A1, “Imidazopyridazines for Use as Protein Kinase Inhibitors” (priority 2007, published 2011)
